Source: PubChem BioAssay AID1259407 (Chemical Carcinogenesis Research Information System (CCRIS), 2018)
Activity calls are given as the source filed them. No rule for the calls is given here.

System: CCRIS mutagenicity, Ames/micronucleus/aberration tests
Experiment: CCRIS mutagenicity studies
[1] = Test System: AMES SALMONELLA TYPHIMURIUM, Strain/Indicator: TA98, Metabolic Activation: NONE, Method: STANDARD PLATE
[2] = Test System: AMES SALMONELLA TYPHIMURIUM, Strain/Indicator: TA100, Metabolic Activation: NONE, Method: STANDARD PLATE

## Oc1ccc2c(O)cccc2c1
Test System: AMES SALMONELLA TYPHIMURIUM, Strain/Indicator: TA102, Metabolic Activation: NONE, Method: PREINCUBATION
  mutagenic call: active; positive
Test System: AMES SALMONELLA TYPHIMURIUM, Strain/Indicator: TA2637, Metabolic Activation: RAT, LIVER, S-9, PHENOBARBITAL AND 5,6-BENZOFLAVONE, Method: PREINCUBATION
  mutagenic call: active; positive

## C1=CC2OC2C=C1 (configuration not stated)
[1]
  mutagenic call: inactive; negative
Test System: AMES SALMONELLA TYPHIMURIUM, Strain/Indicator: TA98, Metabolic Activation: RAT, LIVER, S-9, PHENOBARBITAL, Method: STANDARD PLATE
  mutagenic call: inactive; negative
Test System: AMES SALMONELLA TYPHIMURIUM, Strain/Indicator: TA100, Metabolic Activation: NONE, Method: PREINCUBATION
  mutagenic call: inactive; negative
[2]
  mutagenic call: inactive; negative
Test System: AMES SALMONELLA TYPHIMURIUM, Strain/Indicator: TA100, Metabolic Activation: RAT, LIVER, S-9, PHENOBARBITAL, Method: PREINCUBATION
  mutagenic call: active; positive
Test System: AMES SALMONELLA TYPHIMURIUM, Strain/Indicator: TA100, Metabolic Activation: RAT, LIVER, S-9, PHENOBARBITAL, Method: STANDARD PLATE
  mutagenic call: active; positive
Test System: AMES SALMONELLA TYPHIMURIUM, Strain/Indicator: TA1535, Metabolic Activation: NONE, Method: STANDARD PLATE
  mutagenic call: inactive; negative
Test System: AMES SALMONELLA TYPHIMURIUM, Strain/Indicator: TM677/8-AZAGUANINE, Metabolic Activation: NONE, Method: PREINCUBATION
  mutagenic call: inactive; negative
Test System: AMES SALMONELLA TYPHIMURIUM, Strain/Indicator: TM677/8-AZAGUANINE, Metabolic Activation: NONE, Method: STANDARD PLATE
  mutagenic call: inactive; negative
Test System: AMES SALMONELLA TYPHIMURIUM, Strain/Indicator: TM677, Metabolic Activation: RAT, LIVER, S-9, PHENOBARBITAL, Method: PREINCUBATION
  mutagenic call: active; positive

## C1CCNCC1
Test System: MOUSE LYMPHOMA, Strain/Indicator: L5178Y (TK+/TK-), Metabolic Activation: NONE, Method: SUSPENSION/PLATE
  mutagenic call: active; positive
Test System: MOUSE LYMPHOMA, Strain/Indicator: L5178Y (TK+/TK-), Metabolic Activation: RAT, LIVER, S-9, AROCLOR 1254, Method: SUSPENSION/PLATE
  mutagenic call: inactive; negative

## COC(=O)C1=CCCN(N=O)C1
[1]
  mutagenic call: active; positive
Test System: AMES SALMONELLA TYPHIMURIUM, Strain/Indicator: TA98, Metabolic Activation: RAT, LIVER, S-9, Method: STANDARD PLATE
  mutagenic call: active; positive
[2]
  mutagenic call: active; positive
Test System: AMES SALMONELLA TYPHIMURIUM, Strain/Indicator: TA100, Metabolic Activation: RAT, LIVER, S-9, Method: STANDARD PLATE
  mutagenic call: active; positive

## CC(C)(C)NC[C@@H](O)COc1ccccc1C1CCCC1
[1]
  mutagenic call: active; positive
Test System: AMES SALMONELLA TYPHIMURIUM, Strain/Indicator: TA98, Metabolic Activation: RAT, LIVER, S-9, AROCLOR 1254, Method: STANDARD PLATE
  mutagenic call: active; positive

## CCCCCCN=[N+]=[N-]
Test System: Ames Salmonella typhimurium, Strain/Indicator: TA100, Metabolic Activation: None, Method: Preincubation
  mutagenic call: inactive; negative
Test System: Ames Salmonella typhimurium, Strain/Indicator: TA100, Metabolic Activation: Rat, Liver, S-9, Aroclor 1254, Method: Preincubation
  mutagenic call: active; positive
